Laboratory results published in patent publication US20250122219A1 (priority 2023, published 2025).

Assay: Cytotoxicity assay in MT-4 cells
Format: cell-based
Settings: human; uninfected MT-4 cells, 5 days incubation, Cell Titer Glo; read-out: MT4 CC50
Method: Compounds were tested in a high-throughput 384-well assay format for their ability to inhibit the replication of HIV-1 (IIIB) in MT-4 cells. Compounds were serially diluted (1.3) in DMSO on 384-well polypropylene plates and further diluted 200-fold into complete RPMI media (10% FBS, 1% P/S) using the Biotek Micro Flow and Labcyte ECHO acoustic dispenser. Each plate contained up to 8 test compounds, with negative (No Drug Control) and 5 μM AZT positive controls. MT-4 cells were pre-infected with 10 μL of either RPMI (mock-infected) or a fresh 1:250 dilution of HIV-1 IIIB concentrated virus stock. Infected and uninfected MT-4 cells were further diluted in complete RPMI media and added to each plate using a Micro Flow dispenser. After 5 days incubation in a humidified and temperature controlled incubator (37° C.), Cell Titer Glo (Promega) was added to the assay plates and chemiluminescence read using an Envision plate-reader.
Assays were performed as above except uninfected MT-4 cells were added to each well containing test compound. In addition, […] puromycin was added to the last column of each assay plate to assess a base level of cytotoxicity.

COC1=NO[C@@]2(CC[C@H](C)N3C[C@H]2n2cc(C(=O)NCc4ccc(F)cc4F)c(=O)c(OCOC(=O)OCCCCCCC(C)C)c2C3=O)C1 [Example 210, (((3′S,5S,7′R)-10′-((2,4-difluorobenzyl)carbamoyl)-3-methoxy-3′-methyl-1′,11′-dioxo-1′,4′,5′,11′-tetrahydro-3′H,4H,7′H-spiro[isoxazole-5,6′-[2,7]methanopyrido[1,2-a][1,4]diazonin]-12′-yl)oxy)methyl (7-methyloctyl) carbonate]
CC50 at 5 days: ≥ 50 µM

COC(=O)N[C@@H](C)C(=O)Oc1c2n(cc(C(=O)NCc3ccc(F)cc3F)c1=O)[C@@H]1CN(C2=O)[C@@H](C)CC[C@]12CC(C)=NO2 [Example 79]
CC50 at 5 days: 19.5 µM

COC[C@H](C)OC(=O)OCOc1c2n(cc(C(=O)NCc3ccc(F)cc3F)c1=O)[C@@H]1CN(C2=O)[C@@H](C)CC[C@]12CC(C)=NO2 [Example 215, (((3′S,5S,7′R)-10′-((2,4-difluorobenzyl)carbamoyl)-3,3′-dimethyl-1′,11′-dioxo-1′,4′,5′,11′-tetrahydro-3′H,4H,7′H-spiro[isoxazole-5,6′-[2,7]methanopyrido[1,2-a][1,4]diazonin]-12′-yl)oxy)methyl ((S)-1-methoxypropan-2-yl) carbonate]
CC50 at 5 days: ≥ 50 µM

CC1=NO[C@@]2(CC[C@H](C)N3C[C@H]2n2cc(C(=O)NCc4ccc(F)cc4F)c(=O)c(OC(=O)C(C)C)c2C3=O)C1 [Example 49, (3′S,5S,7′R)-10′-((2,4-difluorobenzyl)carbamoyl)-3,3′-dimethyl-1′,11′-dioxo-1′,4′,5′,11′-tetrahydro-3′H,4H,7′H-spiro[isoxazole-5,6′-[2,7]methanopyrido[1,2-a][1,4]diazonin]-12′-yl isobutyrate]
CC50 at 5 days: 15.1 µM

CC1=NO[C@@]2(CC[C@H](C)N3C[C@H]2n2cc(C(=O)NCc4ccc(F)cc4F)c(=O)c(OC(=O)OCCCCCCC(C)C)c2C3=O)C1 [Example 158, (3′S,5S,7′R)-10′-((2,4-difluorobenzyl)carbamoyl)-3,3′-dimethyl-1′,11′-dioxo-1′,4′,5′,11′-tetrahydro-3′H,4H,7′H-spiro[isoxazole-5,6′-[2,7]methanopyrido[1,2-a][1,4]diazonin]-12′-yl (7-methyloctyl) carbonate]
CC50 at 5 days: 16.8 µM

CCCCCCCCCCCCCCOC(=O)OCOc1c2n(cc(C(=O)NCc3ccc(F)cc3F)c1=O)[C@@H]1CN(C2=O)[C@@H](C)CC[C@]12CC(C)=NO2 [Example 192, (((3′S,5S,7′R)-10′-((2,4-difluorobenzyl)carbamoyl)-3,3′-dimethyl-1′,11′-dioxo-1′,4′,5′,11′-tetrahydro-3′H,4H,7′H-spiro[isoxazole-5,6′-[2,7]methanopyrido[1,2-a][1,4]diazonin]-12′-yl)oxy)methyl tetradecyl carbonate]
CC50 at 5 days: ≥ 50 µM

CCC(C)C(=O)Oc1c2n(cc(C(=O)NCc3ccc(F)cc3F)c1=O)[C@@H]1CN(C2=O)[C@@H](C)CC[C@]12CC(C)=NO2 (stereo partly drawn) [Example 51, (3′S,5S,7′R)-10′-((2,4-difluorobenzyl)carbamoyl)-3,3′-dimethyl-1′,11′-dioxo-1′,4′,5′,11′-tetrahydro-3′H,4H,7′H-spiro[isoxazole-5,6′-[2,7]methanopyrido[1,2-a][1,4]diazonin]-12′-yl 2-methylbutanoate]
CC50 at 5 days: 20 µM

CC1=NO[C@@]2(CC[C@H](C)N3C[C@H]2n2cc(C(=O)NCc4ccc(F)cc4F)c(=O)c(OC(=O)CCCC(=O)O)c2C3=O)C1 [Example 72, 5-(((3′S,5S,7′R)-10′-((2,4-difluorobenzyl)carbamoyl)-3,3′-dimethyl-1′,11′-dioxo-1′,4′,5′,11′-tetrahydro-3′H,4H,7′H-spiro[isoxazole-5,6′-[2,7]methanopyrido[1,2-a][1,4]diazonin]-12′-yl)oxy)-5-oxopentanoic acid]
CC50 at 5 days: 10.8 µM

CCC(C)C(=O)Oc1c2n(cc(C(=O)NCc3ccc(F)cc3F)c1=O)[C@@H]1CN(C2=O)[C@@H](C)CC[C@]12CC(OC)=NO2 (stereo partly drawn) [Example 50, (3′S,5S,7′R)-10′-((2,4-difluorobenzyl)carbamoyl)-3-methoxy-3′-methyl-1′,11′-dioxo-1′,4′,5′,11′-tetrahydro-3′H,4H,7′H-spiro[isoxazole-5,6′-[2,7]methanopyrido[1,2-a][1,4]diazonin]-12′-yl 2-methylbutanoate]
CC50 at 5 days: 21.7 µM

CO[C@H](C)COC(=O)OCOc1c2n(cc(C(=O)NCc3ccc(F)cc3F)c1=O)[C@@H]1CN(C2=O)[C@@H](C)CC[C@]12CC(C)=NO2 [Example 217, (((3′S,5S,7′R)-10′-((2,4-difluorobenzyl)carbamoyl)-3,3′-dimethyl-1′,11′-dioxo-1′,4′,5′,11′-tetrahydro-3′H,4H,7′H-spiro[isoxazole-5,6′-[2,7]methanopyrido[1,2-a][1,4]diazonin]-12′-yl)oxy)methyl ((R)-2-methoxypropyl) carbonate]
CC50 at 5 days: 24.6 µM

COC1=NO[C@@]2(CC[C@H](C)N3C[C@H]2n2cc(C(=O)NCc4ccc(F)cc4F)c(=O)c(OC(=O)OCCCCCCC(C)C)c2C3=O)C1 [Example 159, (3′S,5S,7′R)-10′-((2,4-difluorobenzyl)carbamoyl)-3-methoxy-3′-methyl-1′,11′-dioxo-1′,4′,5′,11′-tetrahydro-3′H,4H,7′H-spiro[isoxazole-5,6′-[2,7]methanopyrido[1,2-a][1,4]diazonin]-12′-yl (7-methyloctyl) carbonate]
CC50 at 5 days: 35.9 µM

COC(=O)Oc1c2n(cc(C(=O)NCc3ccc(F)cc3F)c1=O)[C@@H]1CN(C2=O)[C@@H](C)CC[C@]12CC(OC)=NO2 [Example 122, (03'S,5S,7′R)-10′-((2,4-difluorobenzyl)carbamoyl)-3-methoxy-3′-methyl-1′,11′-dioxo-1′,4′,5′,11′-tetrahydro-3′H,4H,7′H-spiro[isoxazole-5,6′-[2,7]methanopyrido[1,2-a][1,4]diazonin]-12′-yl methyl carbonate]
CC50 at 5 days: 19.8 µM

COC1=NO[C@@]2(CC[C@H](C)N3C[C@H]2n2cc(C(=O)NCc4ccc(F)cc4F)c(=O)c(OC(=O)CCCCCC(=O)O)c2C3=O)C1 [Example 74, 7-(((3′S,5S,7′R)-10′-((2,4-difluorobenzyl)carbamoyl)-3-methoxy-3′-methyl-1′,11′-dioxo-1′,4′,5′,11′-tetrahydro-3′H,4H,7′H-spiro[isoxazole-5,6′-[2,7]methanopyrido[1,2-a][1,4]diazonin]-12′-yl)oxy)-7-oxoheptanoic acid]
CC50 at 5 days: 26.3 µM

COC[C@H](C)OC(=O)OCOc1c2n(cc(C(=O)NCc3ccc(F)cc3F)c1=O)[C@@H]1CN(C2=O)[C@@H](C)CC[C@]12CC(OC)=NO2 [Example 216, (((3′S,5S,7′R)-10′-((2,4-difluorobenzyl)carbamoyl)-3-methoxy-3′-methyl-1′,11′-dioxo-1′,4′,5′,11′-tetrahydro-3′H,4H,7′H-spiro[isoxazole-5,6′-[2,7]methanopyrido[1,2-a][1,4]diazonin]-12′-yl)oxy)methyl ((S)-1-methoxypropan-2-yl) carbonate]
CC50 at 5 days: ≥ 50 µM

CCCOC(=O)Oc1c2n(cc(C(=O)NCc3ccc(F)cc3F)c1=O)[C@@H]1CN(C2=O)[C@@H](C)CC[C@]12CC(OC)=NO2 [Example 126, (3′S,5S,7′R)-10′-((2,4-difluorobenzyl)carbamoyl)-3-methoxy-3′-methyl-1′,11′-dioxo-1′,4′,5′,11′-tetrahydro-3′H,4H,7′H-spiro[isoxazole-5,6′-[2,7]methanopyrido[1,2-a][1,4]diazonin]-12′-yl propyl carbonate]
CC50 at 5 days: 21.9 µM

CO[C@@H](C)COC(=O)OCOc1c2n(cc(C(=O)NCc3ccc(F)cc3F)c1=O)[C@@H]1CN(C2=O)[C@@H](C)CC[C@]12CC(C)=NO2 [Example 219, (((3′S,5S,7′R)-10′-((2,4-difluorobenzyl)carbamoyl)-3,3′-dimethyl-1′,11′-dioxo-1′,4′,5′,11′-tetrahydro-3′H,4H,7′H-spiro[isoxazole-5,6′-[2,7]methanopyrido[1,2-a][1,4]diazonin]-12′-yl)oxy)methyl ((S)-2-methoxypropyl) carbonate]
CC50 at 5 days: 33.9 µM

COC1=NO[C@@]2(CC[C@H](C)N3C[C@H]2n2cc(C(=O)NCc4ccc(F)cc4F)c(=O)c(OCOC(=O)C(C)C)c2C3=O)C1 [Example 108, (((3′S,5S,7′R)-10′-((2,4-difluorobenzyl)carbamoyl)-3-methoxy-3′-methyl-1′,11′-dioxo-1′,4′,5′,11′-tetrahydro-3′H,4H,7′H-spiro[isoxazole-5,6′-[2,7]methanopyrido[1,2-a][1,4]diazonin]-12′-yl)oxy)methyl isobutyrate]
CC50 at 5 days: 21.7 µM

COC1=NO[C@@]2(CC[C@H](C)N3C[C@H]2n2cc(C(=O)NCc4ccc(F)cc4F)c(=O)c(OCOC(=O)OC[C@H](C)OC)c2C3=O)C1 [Example 220, (((3′S,5S,7′R)-10′-((2,4-difluorobenzyl)carbamoyl)-3-methoxy-3′-methyl-1′,11′-dioxo-1′,4′,5′,11′-tetrahydro-3′H,4H,7′H-spiro[isoxazole-5,6′-[2,7]methanopyrido[1,2-a][1,4]diazonin]-12′-yl)oxy)methyl ((S)-2-methoxypropyl) carbonate]
CC50 at 5 days: 41.6 µM

COC(=O)N[C@@H](C)C(=O)Oc1c2n(cc(C(=O)NCc3ccc(F)cc3F)c1=O)[C@@H]1CN(C2=O)[C@@H](C)CC[C@]12CC(OC)=NO2 [Example 78]
CC50 at 5 days: 16.2 µM
